Data reported in US20130164813A1, “Method for Inhibiting Transglutaminase 2 Activity Using 2-alkyloxy-3-phenylethynyl-4a,5-dihydropyrido[2,3-b]pyrazine Derivatives” (DONGGUK UNIVERSITY INDUSTRY-ACADEMIC COOPERATION FOUNDATION, priority 2011, published 2013).

How the values were obtained:
Transglutaminase 2 = target: T1, Transglutaminase 2 (Cavia cutleri, UniProt P08587); test: In vitro assay for inhibitory effect on TGase 2 ([1,4-14C] putrescine incorporation into succinylated casein); assay type: biochemical
T1 construct: purchased Sigma-Aldrich T5398
T1 sequence (P08587 1-690): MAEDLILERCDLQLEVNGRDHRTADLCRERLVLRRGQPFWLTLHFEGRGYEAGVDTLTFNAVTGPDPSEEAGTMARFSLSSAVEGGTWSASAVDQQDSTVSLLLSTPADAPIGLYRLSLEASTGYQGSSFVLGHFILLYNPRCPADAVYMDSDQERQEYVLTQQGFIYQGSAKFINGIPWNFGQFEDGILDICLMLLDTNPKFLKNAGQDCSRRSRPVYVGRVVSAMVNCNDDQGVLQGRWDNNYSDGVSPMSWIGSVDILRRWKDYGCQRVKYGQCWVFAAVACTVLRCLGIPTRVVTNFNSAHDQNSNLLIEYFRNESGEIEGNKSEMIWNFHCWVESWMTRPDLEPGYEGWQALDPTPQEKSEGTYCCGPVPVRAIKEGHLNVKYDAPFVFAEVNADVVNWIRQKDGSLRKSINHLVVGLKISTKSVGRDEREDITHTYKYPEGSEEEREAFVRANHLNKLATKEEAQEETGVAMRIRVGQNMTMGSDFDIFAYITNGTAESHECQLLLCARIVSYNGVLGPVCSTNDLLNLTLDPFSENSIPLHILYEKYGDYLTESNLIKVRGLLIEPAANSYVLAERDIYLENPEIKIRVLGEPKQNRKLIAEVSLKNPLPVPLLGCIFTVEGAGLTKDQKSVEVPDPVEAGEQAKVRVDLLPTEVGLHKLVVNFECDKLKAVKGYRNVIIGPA
Method: In vitro Assay for Inhibitory effect of 2-alkyloxy-3-phenylethynyl-4a,5-dihydropyrido[2,3-b]pyrazine derivative on TGase 2.
Method. […] Succinylated casein was purchased from Calbiochem (Cat. No. 573464), and 1 g of the powder was dissolved in 50 ml of a reaction buffer solution containing 5 mM DTT (0.1 M Tris-acetate (pH 8.0), 10 mM CaCl2, 0.15 M NaCl, 1.0 mM EDTA). This solution was stored in a deep freezer for further use. [1,4-14C] Putrescine dihydrochloride was purchased from GE Healthcare (Cat. No. CFA301), and the stock solution was diluted with distilled water to yield a radiological dose of 5 μCi/ml. Transglutaminase 2 was purchased from Sigma-Aldrich (Cat. No. T5398), and diluted with distilled water to yield a final concentration of 1 unit/ml. 2-Alkyloxy-3-phenylethynyl-4a,5-dihydropyrido[2,3-b]pyrazine derivative was dissolved at a concentration of 1 mM to prepare its stock solution, and the stock solution was diluted with DMSO to prepare solutions having various concentrations.
450 μl of succinylated casein solution and 50 μl of [1,4-14C] putrescine dihydrochloride solution were mixed together to prepare a substrate solution. 96 μl of the reaction buffer, 3 μl of the stock solution of the compounds of the present invention, and 1 μl of the stock solution of transglutaminase were mixed together to prepare each sample, followed by incubation at 37° C. for 10 min. 500 μl of the substrate solution and 100 μl of sample solution were mixed well, and the mixture was incubated at 37° C. for 2 hrs and then the reaction terminated by adding 4.5 ml of cold (4° C.) 7.5% TCA. The final solution was stored at 4° C. for 1 hr. The TCA-protein precipitates were filtered through a GF/glass fiber filter, washed with 25 ml of cold 5% TCA, and dried. Radioactivity of cross-linked protein was measured using a β-counter (Beckman Coulter), and compensated by the activity of DMSO-control group as a standard. The activity of transglutaminase was represented by the measured values.

RXF393 = test: SRB test, renal cancer cell line RXF393; assay type: cell-based; conditions: Homo sapiens, RXF 393, RXF393, 48 hours, read-out: IG50 (×E−7)
Method: (§1) Test of Anti-cancer efficacy in the Cancer cell line. In order to examine anti-cancer efficacy of 2-alkyloxy-3-phenylethynyl-4a,5-dihydropyrido[2,3-b]pyrazine derivatives, Eight renal cancer cell lines were treated to perform an SRB test. In order to compare the anti-cancer efficacy, sutent® (Pfizer) was used for comparison.
(§2) 1) Method (SRB Test). The cancer cell lines were cultured in an RPMI 1640 medium containing 5% fetal bovine serum and 2 mM L-glutamine. The cancer cells were inoculated into a 96 well microtiter plate at a density of 5,000 or 40,000 cells/well. The cells were incubated at 37° C., 5% CO2, 95% air and 100% humidity for 24 hours prior to drug treatment.
(§3) After 24 hours, the cells were fixed with TCA at the time of drug addition (Tz). The drug was treated by 10-fold or log scale serial dilutions, and the efficacy was examined at a concentration of 5 point or more. After drug treatment, the cells were incubated for 48 hours. […] Bound stain was subsequently solubilized with trizma base, and the absorbance was read at 515 nm.
(§4) Growth inhibitory efficacy was measured by using the seven absorbance measurements. [time zero, (Tz), control growth, (C), and test growth in the presence of drug at the five concentration levels (Ti)], the percentage growth was calculated at each of the drug concentrations levels. […]

CAKI-I = test: SRB test, renal cancer cell line CAKI-I; assay type: cell-based; conditions: 48 hours, read-out: IG50 (×E−7)
Method: as §1, §2, §3, §4

MDA-MB-231 cells = test: Anti-cancer efficacy on MDA231 breast cancer cell line by animal study (subcutaneous xenograft); assay type: in vivo; conditions: 4 mg/kg, compared to the cisplatin-treated group, FIGS. 3 and 4
Method: Evaluation of Anti-cancer efficacy of TGase 2 inhibitor on MDA231 breast cancer cell line by animal study.
MDA-MB-231 cells were cultured in a DMEM medium containing 10% FBS.
8×10^6 of MDA-MB-231 cells were subcutaneously injected into 7-week-old female Balb/c-nude mice. Four TGase inhibitors and doxorubicin were co-administered, and the effects were examined Group 1: saline. […] Group 3: 2-alkyloxy-3-phenylethynyl-4a,5-dihydropyrido[2,3-b]pyrazine derivative (4 mg/kg).
The prepared cancer cell, MDA-MB231/luciferase (8×10^6 cells/head) was subcutaneously injected into animals 7 days after their arrival. When a volume of the injected cancer cells reached 100 mm3, drug treatment was started.
After injection of MDA-MB-231, when a volume of the injected tumor reached 100 mm3, drug treatment was performed. After 3-4 weeks, the mice were sacrificed.
After the tumor volume reached 100 mm3, the size was measured three times per week during the drug treatment period. The tumor volume was calculated as ‘long axis×long axis×short axis/2’.

renal cancer cell lines = test: SRB test, eight renal cancer cell lines together; assay type: cell-based
Method: as §1, §2, §3, §4

TK10 = test: SRB test, renal cancer cell line TK10; assay type: cell-based; conditions: Homo sapiens, TK-10, TK10, 48 hours, read-out: IG50 (×E−7)
Method: as §1, §2, §3, §4

ACHN = test: SRB test, renal cancer cell line ACHN; assay type: cell-based; conditions: Homo sapiens, 48 hours, read-out: IG50 (×E−7)
Method: as §1, §2, §3, §4

US31 = test: SRB test, renal cancer cell line US31; assay type: cell-based; conditions: 48 h, read-out: IG50 (×E−7)
Method: as §1, §2, §3, §4

SN12C = test: SRB test, renal cancer cell line SN12C; assay type: cell-based; conditions: Homo sapiens, 48 hours, read-out: IG50 (×E−7)
Method: as §1, §2, §3, §4

786-O = test: SRB test, renal cancer cell line 786-O; assay type: cell-based; conditions: Homo sapiens, 786-0, 48 hours, read-out: IG50 (×E−7)
Method: as §1, §2, §3, §4

A498 = test: SRB test, renal cancer cell line A498; assay type: cell-based; conditions: Homo sapiens, A498, 48 hours, read-out: IG50 (×E−7)
Method: as §1, §2, §3, §4

SMILES	inhibition at 10 µM (Transglutaminase 2)	also measured
C(#Cc1nc2ncccc2nc1OCCN1CCOCC1)c1ccccc1 [Example 3, 4-(2-(3-(phenylethynyl)pyrido[3,2-b]pyrazin-2-yloxy)ethyl)morpholine]	47%	
C(#Cc1nc2ncccc2nc1OCCCN1CCCC1)c1ccccc1 [Example 4, 3-(phenylethynyl)-2-(3-(pyrrolidin-1-yl)propoxy)pyrido[3,2-b]pyrazine]	59%	
COc1ccc(C#Cc2nc3ncccc3nc2OCCN2CCCCC2)cc1 [Example 15, 3-(4-methoxyphenylethynyl)-2-(2-piperidin-1-ylethoxy)pyrido[3,2-b]pyrazine]	51%	
CN(C)c1ccc(C#Cc2nc3ncccc3nc2OCCN2CCCCC2)cc1 [Example 9, N,N-dimethyl-4-((2-(2-(piperidin-1-yl)ethoxy)pyrido[3,2-b]pyrazin-3-yl)ethynyl)benzenamine]	57%	
C(#Cc1nc2ncccc2nc1OCCN1CCCCC1)c1ccccc1 [Example 2, 3-phenylethynyl-2-(2-(piperidin-1-yl)ethoxy)pyrido[2,3-b]pyrazine]	83%	
CN(C)c1ccc(C#Cc2nc3ncccc3nc2OCCN2CCCC2)cc1 [Example 8, N,N-dimethyl-4-((2-(2-(pyrrolidin-1-yl)ethoxy)pyrido[3,2-b]pyrazin-3-yl)ethynyl)benzenamine]	68%	
C(#Cc1nc2ncccc2nc1OCCN1CCCC1)c1ccccc1 [Example 1, 3-phenylethynyl-2-(2-(pyrrolidin-1-yl)ethoxy)pyrido[2,3-b]pyrazine]	91%	IC50 (RXF393): 179 nM; IC50 (CAKI-I): 71 nM; reduction in the tumor size (MDA-MB-231 cells): the best effect of a reduction in the tumor size; GI50 (renal cancer cell lines; eight renal cancer cell lines, SRB, read-out: Average GI50 over all cell lines): 430 nM; anti-cancer efficacy compared with SUTENT (renal cancer cell lines; renal cancer cell line, SRB growth rate, FIG. 2): better than that of SUTENT®; IC50 (TK10): 529 nM; IC50 (ACHN): 137 nM; IC50 (Transglutaminase 2; FIG. 1): 33.8 nM; IC50 (US31): 5490 nM; IC50 (SN12C): 186 nM; IC50 (786-O): 225 nM; IC50 (A498): 5610 nM
C(#Cc1nc2ncccc2nc1OCCCN1CCCCC1)c1ccccc1 [Example 5, 3-(phenylethynyl)-2-(3-(piperidin-1-yl)propoxy)pyrido[3,2-b]pyrazine]	54%	
O=C1CCCN1CCCOc1nc2cccnc2nc1C#Cc1ccccc1 [Example 7, 1-(3-(3-(phenylethynyl)pyrido[3,2-b]pyrazin-2-yloxy)propyl)pyrrolidin-2-one]	43%	
CN(C)c1ccccc1C#Cc1nc2ncccc2nc1OCCN1CCCC1 [Example 42, N,N-dimethyl-2-((2-(2-(pyrrolidin-1-yl)ethoxy)pyrido[3,2-b]pyrazin-3-yl)ethynyl)benzenamine]	63%	
CN(C)c1ccccc1C#Cc1nc2ncccc2nc1OCCN1CCCCC1 [Example 43, N,N-dimethyl-2-((2-(2-(piperidin-1-yl)ethoxy)pyrido[3,2-b]pyrazin-3-yl)ethynyl)benzenamine]	54%	
COc1ccc(C#Cc2nc3ncccc3nc2OCCN2CCCC2)cc1 [Example 14, 3-(4-methoxyphenylethynyl)-2-(2-pyrrolidin-1-ylethoxy)pyrido[3,2-b]pyrazine]	64%	
C(#Cc1nc2ncccc2nc1OCCCN1CCOCC1)c1ccccc1 [Example 6, 4-(3-(3-(phenylethynyl)pyrido[3,2-b]pyrazin-2-yloxy)propyl)morpholine]	32%	
Cc1ccc(C#Cc2nc3ncccc3nc2OCCN2CCCC2)cc1 [Example 21, 2-(2-(pyrrolidin-1-yl)ethoxy)-3-(p-tolylethynyl)pyrido[3,2-b]pyrazine]	52%	
